Experimental data published in US6528517B1, “Synthesis of quinobenzoxazine analogues with topoisomerase II and quadruplex interactions for use as antineoplastic agents” (Board of Regents, The University of Texas System, priority 1998, dated 2003).
“Also recorded” adds a separate entry of the source. Each block holds one compound with its values, some of them ahead of it.

Experiments:
human topoisomerase II = target: T1, human topoisomerase II (Homo sapiens, UniProt P11388); test: Decatenation assay (catenated to decatenated KDNA); assay type: biochemical; details: drug concentration that inhibits 50% of conversion of catenated to decatenated KDNA; read-out: topoisomerase II inhibition IC50
T1 construct: purchased TopoGEN, Inc
Procedure: Kinetoplast DNA (KDNA), human topoisomerase II (170 KDa form), and DNA Unwinding Kit including supercoiled pHOT1 DNA, relaxed DNA marker, buffers, and human topoisomerase I were purchased from TopoGEN, Inc. Agarose was purchased from Fisher. Quinobenzoxazine A-62176 (S-enantiomer) was provided by Abbott Laboratories or prepared by published procedure (Chu and Maleczka, Jr., 1987).
0.25 μg of KDNA was incubated with various concentrations of the quinobenzoxazines in a 20-μl reaction mixture containing 50 mM Tris-HCl (pH 8), 120 mM KCl, 10 mM MgCl2, and 0.5 mM each of ATP, dithiothreitol, and […] BSA for 10 min. Two units of human topoisomerase II (170 KDa form) were added to the mixture, which was then incubated at 37° C. for 30 min. The reaction was terminated with 0.1 volume of stop buffer (5% sarkosyl, 0.025% bromophenol blue, and 50% glycerol). The decatenation products were analyzed on 1% agarose gels run with 0.5 μg/ml ethidium bromide. The gels were scanned by FluoroImager and analyzed by ImageQuaNT software (Molecular Dynamics).

supercoiled pHOT1 DNA = test: DNA unwinding assay; assay type: biochemical; details: concentration shifting topoisomers to the middle position between relaxed and supercoiled bands
Procedure: A 22 μl mixture of 0.25 μg of supercoiled pHOT1 DNA, 5 units of topoisomerase I in topoisomerase I buffer (provided with the kit) was incubated at 37° C. for 30 min. Two μl of various concentrations of drug was added, and the incubation was continued for another 30 min. The reactions were terminated by addition of SDS to 1%. Proteinase K was added to the reaction mixtures to ca. 50 μg/ml, and the reaction mixtures were incubated for 15-20 min at 56° C. After adding 0.1 volume of 10×gel loading buffer, the reaction mixtures were extracted with an equal volume of CIA (Chloroform:isoamyl Alcohol; 24:1). The samples were loaded on an 1% agarous gel that was cast in TPE buffer (36 mM Tris-HCl, pH 7.8, 1 mM EDTA, 30 mM NaH2PO4) and 0.2 μg/ml Chloroquine. The gel was run in TPE buffer at room temperature at 10 volts for 20 h, destained in water for 15 min, stained in 0.05 μg/ml ethidium bromide for 15 min, and destained again in water for 15 min. The gel was then photographed, scanned by FluoroImager, and analyzed by ImageQuaNT software (Molecular Dynamics).

B16 melanoma = test: Cancer cell growth inhibition assay (MTT); assay type: cell-based, murine
Procedure: (§1) Exponentially growing cells in 0.1 ml medium were seeded on Day 0 in 96-well microtiter plates. On Day 1, 0.1-ml aliquots of medium containing graded concentrations test agent were added in duplicate to the cell plates. After incubation at 37° C. in a humidified incubator, the plates were centrifuged briefly (1-2 min at 1000 rpm), and 100 μl of the growth medium was removed. Cell cultures were incubated with 50 μl of 3-(4,5-dimethylthiazyl-2-yl)-2,5-diphenyltetrazolium bromide MTT, 1 mg/ml in Dubecco's PBS for 4 h at 37° C. The resulting purple formazan precipitate was solubilized with 200 μl of 0.4 N HCl in isopropyl alcohol. Absorbance was quantitated using a Bio-Rad Model 3550 microplate reader at a test wavelength of 570 nm and a reference wavelength of 630 nm. Absorbance values were transferred to a 486 personal computer, and the IC50 values were determined using the computer program EZ-ED50 (Chen et al., 1993).

DU-145 prostate = test: Cancer cell growth inhibition assay (MTT); assay type: cell-based, human
Procedure: as §1

H226 non-small-cell lung = test: Cancer cell growth inhibition assay (MTT); assay type: cell-based, human
Procedure: as §1

HT-29 colon = test: Cancer cell growth inhibition assay (MTT); assay type: cell-based, human
Procedure: as §1

MDA-231 breast = test: Cancer cell growth inhibition assay (MTT); assay type: cell-based, human
Procedure: as §1

Raji lymphoma = test: Cancer cell growth inhibition assay (MTT); assay type: cell-based, human
Procedure: as §1

[1] = test system: G-quadruplex structure formed on the HT4 template; test: DNA synthesis arrest assay (Taq polymerase primer extension); assay type: biochemical; details: 55° C.
Procedure: FIG. 12A and FIG. 12B. Compound 2b (see FIG. 3) concentration-dependent block of Taq polymerase DNA synthesis by the G-quadruplex structure formed on the HT4 template at 55° C. (A) Autoradiogram of a sequencing gel showing enhanced DNA synthesis pausing at the G-quadruplex site with increasing concentrations of 2b. Arrows indicate the positions of the full length product of DNA synthesis, the G-quadruplex pausing site, and the free primer. (B) Quantitation of the gel using ImageQuaNT software.
This assay is similar to that described by Han and co-workers (Han et al., 1999). Briefly, primers (24 nM) labeled with [γ-^32P] were mixed with template DNA (12 nM)) in a Tris-HCl buffer (10 mM Tris, pH 8.0) containing K^+ (50 mM for the HT4 template) and denatured by heating at 90° C. for 5 min. After cooling down to room temperature, 2b was added at various concentrations and incubated at room temperature for 15 min. The primer extension reactions were initiated by adding dNTP (final concentration 100 μM), MgCl2 (final concentration […]), and Taq DNA polymerase (2.5 U/reaction, Boehringer Mannheim). The products were separated on a 12% polyacrylamide sequencing gel. The gels were then dried and visualized on a PhosphorImager (Molecular Dynamics model 445 S1). […]

human telomerase = test: Telomerase inhibition assay (HeLa cell extract); assay type: biochemical
Procedure: The assay used crude HeLa cell extract as the source of human telomerase. It measures the incorporation of ^32P-labeled dGTP into the primer extension of human telomere synthesis (Sun et al., 1998). […] Specific examples of such dual-acting compounds include compounds 2b and 2a (FIG. 3).
The assay was performed by using 5′-end biotinylated d[TTAGGG]3 as the telomere primer. Reaction mixtures (20 μl) containing 5 μl cell lysate (S-100), 50 mM Tris-OAc (pH 8.5), 50 mM K-OAc, 1 mM MgCl2, 5 mM BME, 1 mM spermidine, 1 μM telomere primer, 1.5 μM [α-^32P]-dGTP (800 Ci/mmol), 1 mM dATP, and 1 mM dTTP were incubated at 37° C. for 1 hr, and the reactions were terminated by adding 20 μl of […] streptavidin-coated Dynabeads suspension containing 10 mM Tris-HCl (pH 7.5), 1 mM EDTA, 2M KCl, and a 500 cpm biotinylated internal control. Streptavidin-coated Dynabeads bind selectively to the desired target (5′-biotinylated primer), forming a magnetic bead-targeted complex. The complex was separated from the suspension using a Dynal MPC magnet and washed several times with 2×SSC buffer containing 0.1% SDS to eliminate [α-^32P]-dGTP background. Telomerase reaction products were separated from the magnetic beads by protein denaturation with 5.7 M guanidine-HCl at 90° C. for 30 min. After ethanol precipitation, products were resolved on denaturating 10% polyacrylamide gel.

sea urchin embryo system = test: Sea urchin embryo system
topo II-DNA complex [2] = target: T2, topo II-DNA complex (Drosophila melanogaster, UniProt P15348); details: cited from earlier work
T2 construct: purchased Amersham
T2 sequence (P15348 1-1447): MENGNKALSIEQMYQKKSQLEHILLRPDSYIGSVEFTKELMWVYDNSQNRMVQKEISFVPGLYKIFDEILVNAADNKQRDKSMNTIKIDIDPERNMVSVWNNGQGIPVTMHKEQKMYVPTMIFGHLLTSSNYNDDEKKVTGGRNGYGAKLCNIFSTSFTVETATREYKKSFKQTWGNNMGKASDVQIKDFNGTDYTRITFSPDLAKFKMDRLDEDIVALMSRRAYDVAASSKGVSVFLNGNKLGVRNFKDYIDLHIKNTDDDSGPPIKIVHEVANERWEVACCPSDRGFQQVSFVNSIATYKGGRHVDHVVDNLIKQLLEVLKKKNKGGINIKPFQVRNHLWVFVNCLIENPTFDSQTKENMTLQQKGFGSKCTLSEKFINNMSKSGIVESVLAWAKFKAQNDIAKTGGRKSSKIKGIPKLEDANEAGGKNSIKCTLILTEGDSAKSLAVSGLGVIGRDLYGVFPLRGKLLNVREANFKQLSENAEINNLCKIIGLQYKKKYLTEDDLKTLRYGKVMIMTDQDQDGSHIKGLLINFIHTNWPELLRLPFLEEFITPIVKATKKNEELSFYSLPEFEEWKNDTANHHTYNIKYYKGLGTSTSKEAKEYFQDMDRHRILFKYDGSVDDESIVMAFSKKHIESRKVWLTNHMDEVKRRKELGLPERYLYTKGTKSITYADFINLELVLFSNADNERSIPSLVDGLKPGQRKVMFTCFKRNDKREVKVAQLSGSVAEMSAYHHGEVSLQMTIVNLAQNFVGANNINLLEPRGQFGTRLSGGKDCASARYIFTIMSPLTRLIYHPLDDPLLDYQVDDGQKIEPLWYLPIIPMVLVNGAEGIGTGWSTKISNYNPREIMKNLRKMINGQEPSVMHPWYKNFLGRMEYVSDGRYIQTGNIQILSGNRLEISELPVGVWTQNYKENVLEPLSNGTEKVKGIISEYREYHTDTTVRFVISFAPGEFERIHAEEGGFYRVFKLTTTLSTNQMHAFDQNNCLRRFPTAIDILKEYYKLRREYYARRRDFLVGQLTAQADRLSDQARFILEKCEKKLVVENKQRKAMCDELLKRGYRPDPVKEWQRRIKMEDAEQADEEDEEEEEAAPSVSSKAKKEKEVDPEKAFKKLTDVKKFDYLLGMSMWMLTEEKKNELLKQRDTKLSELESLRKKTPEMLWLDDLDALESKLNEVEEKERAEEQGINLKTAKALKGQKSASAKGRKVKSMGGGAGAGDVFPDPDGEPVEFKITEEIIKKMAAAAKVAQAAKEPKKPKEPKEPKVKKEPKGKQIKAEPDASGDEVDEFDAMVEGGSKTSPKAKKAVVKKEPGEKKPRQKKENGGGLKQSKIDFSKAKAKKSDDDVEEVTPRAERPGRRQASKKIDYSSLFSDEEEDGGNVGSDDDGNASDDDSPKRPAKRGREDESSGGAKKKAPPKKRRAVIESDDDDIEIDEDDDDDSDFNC

[3] = test system: prostate cell line DU-145; test: Cytotoxicity of III in combination with Norfloxacin; assay type: cell-based; details: given alone
Procedure: FIG. 11. Effect of increasing concentrations of Norfloxacin on the cytotoxic effect of QQ58, compound III in FIG. 2 in the prostate cell line DU-145. Compound III was either given alone (●) or in combination with Norfloxacin at concentrations of 2.58 (♦), 19.37 (♦), or 87.33 (▪) μg/ml. For additions of 2.58 and 19.37 μ/ml of Norfloxacin, the IC50 of compound III was increased by approximately 14- and 20-fold.
as §1, with “The resulting purple formazan precipitate was solubilized with 200 μl of 0.4 N HCl in isopropyl alcohol.” left out
In separate studies, the IC50 of III and the IC10, IC20, and IC50 of Norfloxacin were determined for DU-145, a prostate cell line.

topo II-DNA complex [4] = target: T2, topo II-DNA complex; test: Psorospermin competition study (DNA strand breakage assay); assay type: biochemical; details: 0.5-10 μM drug, psorospermin, topo II present
Procedure: 5′^32P-labeled DNA was incubated with Drosophila topo II in the same buffer as the one in the topo II cleavage reaction in the presence of various amounts of either A-62176, Norfloxacin, or both. The incubation reactions took place at 30° C. for 10 min before 10 μM (final concentration) of psorospermin was added to the mixtures. The reactions were continued for an additional 5 min and then terminated by adding 5 μg of calf thymus DNA, followed by heating at 95° C. for 15 min. In the presence of piperidine, this procedure induces strand breakage at the drug modification sites (Hansen et al., 1996). The samples were subjected to phenol/chloroform extraction followed by ethanol precipitation.
In the presence of topo II, the reactivity of psorospermin is enhanced more than 40-fold with the guanine at the +4′ position at site B in FIG. 7 (Kwok et al., 1998a and 1998b). A DNA strand breakage assay was used to locate the position of alkylation of DNA by the epoxide of psorospermin upon intercalation to the base pairs between the +1 and +2 positions at site B within the topo II-DNA complex (Kwok et al., 1998a). Psorospermin has subsequently been used to probe the binding sites for m-AMSA (Kwok et al., 1998a). In the present study, this same assay was performed to determine the binding site of A-62176 on DNA in the presence of topo II.

T1 sequence (P11388 whole entry): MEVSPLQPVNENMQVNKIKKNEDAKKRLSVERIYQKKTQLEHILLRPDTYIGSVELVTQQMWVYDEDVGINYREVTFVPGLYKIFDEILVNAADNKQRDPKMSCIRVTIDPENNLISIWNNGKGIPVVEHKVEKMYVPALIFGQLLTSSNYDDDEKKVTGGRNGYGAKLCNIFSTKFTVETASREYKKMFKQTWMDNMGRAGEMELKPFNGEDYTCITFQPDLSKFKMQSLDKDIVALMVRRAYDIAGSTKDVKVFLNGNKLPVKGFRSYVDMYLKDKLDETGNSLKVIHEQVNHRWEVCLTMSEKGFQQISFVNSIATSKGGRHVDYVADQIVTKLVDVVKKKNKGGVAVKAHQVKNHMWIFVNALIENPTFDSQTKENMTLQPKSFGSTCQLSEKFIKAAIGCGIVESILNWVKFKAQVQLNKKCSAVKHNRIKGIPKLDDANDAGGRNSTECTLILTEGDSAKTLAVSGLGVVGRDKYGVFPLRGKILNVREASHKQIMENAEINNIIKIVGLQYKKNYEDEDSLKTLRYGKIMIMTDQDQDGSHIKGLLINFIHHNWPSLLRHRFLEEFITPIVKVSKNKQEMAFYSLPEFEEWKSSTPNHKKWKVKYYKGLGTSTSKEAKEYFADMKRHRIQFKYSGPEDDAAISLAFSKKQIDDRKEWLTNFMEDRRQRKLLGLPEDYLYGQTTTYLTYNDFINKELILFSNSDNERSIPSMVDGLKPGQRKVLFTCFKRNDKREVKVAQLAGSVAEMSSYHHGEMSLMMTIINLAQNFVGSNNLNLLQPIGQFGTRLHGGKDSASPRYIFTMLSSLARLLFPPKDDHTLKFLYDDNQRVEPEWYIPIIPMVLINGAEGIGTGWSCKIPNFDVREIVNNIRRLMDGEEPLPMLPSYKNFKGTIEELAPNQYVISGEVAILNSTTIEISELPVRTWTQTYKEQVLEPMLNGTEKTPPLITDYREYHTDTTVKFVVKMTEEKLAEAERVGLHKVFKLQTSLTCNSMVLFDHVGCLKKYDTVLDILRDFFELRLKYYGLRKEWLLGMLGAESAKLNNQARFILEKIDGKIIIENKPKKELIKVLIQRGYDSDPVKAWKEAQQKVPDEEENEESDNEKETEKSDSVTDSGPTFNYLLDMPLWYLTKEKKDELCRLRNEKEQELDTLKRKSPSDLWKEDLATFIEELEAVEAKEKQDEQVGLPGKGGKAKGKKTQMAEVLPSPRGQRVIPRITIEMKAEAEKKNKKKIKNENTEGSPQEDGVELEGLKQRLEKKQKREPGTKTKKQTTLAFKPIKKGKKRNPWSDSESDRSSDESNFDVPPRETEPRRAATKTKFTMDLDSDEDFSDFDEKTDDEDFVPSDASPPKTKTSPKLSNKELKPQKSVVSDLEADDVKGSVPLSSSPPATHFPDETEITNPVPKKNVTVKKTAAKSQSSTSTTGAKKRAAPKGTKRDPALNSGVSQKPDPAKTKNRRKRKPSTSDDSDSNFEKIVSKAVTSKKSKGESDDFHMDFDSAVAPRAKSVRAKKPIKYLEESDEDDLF

IC50 (human topoisomerase II): 240 nM
IC50 (B16 melanoma): 20 ± 2 nM
IC50 (DU-145 prostate): 30 ± 10 nM
IC50 (H226 non-small-cell lung): 13 ± 5 nM
IC50 (HT-29 colon): 26 ± 1 nM
IC50 (MDA-231 breast): 5 ± 1 nM
IC50 (Raji lymphoma): 34 ± 2 nM
primer extension by Taq DNA polymerase ([1]; 100 μM): completely inhibited
polymerase pausing at the G-quadruplex site ([1]; increasing concentration): enhanced pausing
SMILES: Cl.NC1CCN(c2c(F)cc3c(=O)c(C(=O)O)cn4c3c2Oc2c-4ccc3ccccc23)C1 (stereo not drawn) [Compound 2b, 1-(3-Aminopyrrolidin-1-yl)-2-fluoro-4-oxo-4H-pyrido[3,2,1-k,l]-benzo[f]-phenoxazine-5-carboxylic Acid]
DNA unwinding concn (supercoiled pHOT1 DNA): 3 µM
telomerase inhibition (qualitative) (human telomerase): dual-acting; also recorded: inhibit telomerase
chromosomal aberrations (sea urchin embryo system): cause chromosomal aberrations

SMILES: COc1cc2c(c3oc4c(O)cccc4c(=O)c13)C[C@H]([C@@]1(C)CO1)O2 [Psorospermin]
enhancement of reactivity with guanine at +4′ position of site B in the presence of topo II (topo II-DNA complex [2]): more than 40 fold

SMILES: CCn1cc(C(=O)O)c(=O)c2cc(F)c(N3CCNCC3)cc21 [Norfloxacin]
potency relative to III (fold less potent) [3]: at least 1000 fold
psorospermin alkylation at site B (competition) (topo II-DNA complex [4]): no competition
